Test results: ChEMBL document CHEMBL1201862, “PubChem BioAssay data set” (2004)
Activity calls are given as the source filed them.

Assays:
cells [1] = assay type: functional
[2] = A High Throughput Confirmatory Assay used to Identify Novel Compounds that Inhibit Mycobacterium Tuberculosis in the absence of Glycerol.; assay type: functional
Estrogen receptor = target: T1, Estrogen receptor (Homo sapiens, UniProt P03372);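 also: potency for inhibiting coactivator peptide recruitment to the receptor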
T1 sequence (P03372 whole entry): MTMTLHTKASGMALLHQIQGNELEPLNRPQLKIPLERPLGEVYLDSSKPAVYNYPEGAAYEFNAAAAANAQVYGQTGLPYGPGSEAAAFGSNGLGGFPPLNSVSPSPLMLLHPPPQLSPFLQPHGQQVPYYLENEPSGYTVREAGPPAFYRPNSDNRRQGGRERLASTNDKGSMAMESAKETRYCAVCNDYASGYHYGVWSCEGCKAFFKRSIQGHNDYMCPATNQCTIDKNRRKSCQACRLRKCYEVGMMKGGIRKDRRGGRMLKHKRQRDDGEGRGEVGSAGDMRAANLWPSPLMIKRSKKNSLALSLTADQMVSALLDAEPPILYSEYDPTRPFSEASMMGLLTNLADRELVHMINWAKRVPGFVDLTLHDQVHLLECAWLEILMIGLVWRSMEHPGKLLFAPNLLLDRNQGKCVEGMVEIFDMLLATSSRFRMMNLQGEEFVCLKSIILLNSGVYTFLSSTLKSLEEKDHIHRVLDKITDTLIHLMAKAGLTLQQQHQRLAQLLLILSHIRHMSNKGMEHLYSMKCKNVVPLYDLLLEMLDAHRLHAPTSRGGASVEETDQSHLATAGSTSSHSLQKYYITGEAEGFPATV

HEK293 [3] = assay: NOD2 signaling inhibitors in MDP-stimulated cells, cell-based, uHTS, luminescence (AID 2001); assay type: functional; conditions: Homo sapiens
[4] = inhibitors of intracellular T. cruzi replication, confirmation, NIH3T3 host cells, beta-gal luminescence (AID 2044); assay type: functional, cell-based;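 also: intracellular parasites grown in NIH/3T3 mouse fibroblasts as host cells; luminescent beta-galactosidase reporter signal from transgenic T. cruzi replicating inside host cells; inhibitors lower the luminescence signal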
INS1 = assay: beta cell apoptosis inhibitors, cytokine rescue, dose response, luminescence, retest (AID 449756); assay type: functional, cell-based; conditions: Rattus norvegicus;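 also: cell death triggered by IL-1 beta plus TNF-alpha plus IFN-gamma mixture; protective hits raise ATP signal compared with cytokine alone wells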
HEK293 [5] = assay: cells; assay type: functional, cell-based; conditions: Homo sapiens
cells [6] = assay type: functional, cell-based
[7] = inhibitors of firefly luciferase expression or activity, dose response, H4 neuroglioma cells, luminescence (AID 1990); assay type: functional, cell-based
[8] = inhibitors of SNCA 5'UTR-driven reporter translation, confirmation, H4 neuroglioma cells, luminescence (AID 1988); assay type: functional, cell-based
[9] = target: Nucleotide-binding oligomerization domain-containing protein 2 (Homo sapiens, UniProt Q9HC29); assay: NOD2 signaling inhibitors, cell-based, luminescence, uHTS, HEK293 (AID 1566); assay type: functional
Sequence of Nucleotide-binding oligomerization domain-containing protein 2 (Q9HC29 whole entry, the tested form may be a part): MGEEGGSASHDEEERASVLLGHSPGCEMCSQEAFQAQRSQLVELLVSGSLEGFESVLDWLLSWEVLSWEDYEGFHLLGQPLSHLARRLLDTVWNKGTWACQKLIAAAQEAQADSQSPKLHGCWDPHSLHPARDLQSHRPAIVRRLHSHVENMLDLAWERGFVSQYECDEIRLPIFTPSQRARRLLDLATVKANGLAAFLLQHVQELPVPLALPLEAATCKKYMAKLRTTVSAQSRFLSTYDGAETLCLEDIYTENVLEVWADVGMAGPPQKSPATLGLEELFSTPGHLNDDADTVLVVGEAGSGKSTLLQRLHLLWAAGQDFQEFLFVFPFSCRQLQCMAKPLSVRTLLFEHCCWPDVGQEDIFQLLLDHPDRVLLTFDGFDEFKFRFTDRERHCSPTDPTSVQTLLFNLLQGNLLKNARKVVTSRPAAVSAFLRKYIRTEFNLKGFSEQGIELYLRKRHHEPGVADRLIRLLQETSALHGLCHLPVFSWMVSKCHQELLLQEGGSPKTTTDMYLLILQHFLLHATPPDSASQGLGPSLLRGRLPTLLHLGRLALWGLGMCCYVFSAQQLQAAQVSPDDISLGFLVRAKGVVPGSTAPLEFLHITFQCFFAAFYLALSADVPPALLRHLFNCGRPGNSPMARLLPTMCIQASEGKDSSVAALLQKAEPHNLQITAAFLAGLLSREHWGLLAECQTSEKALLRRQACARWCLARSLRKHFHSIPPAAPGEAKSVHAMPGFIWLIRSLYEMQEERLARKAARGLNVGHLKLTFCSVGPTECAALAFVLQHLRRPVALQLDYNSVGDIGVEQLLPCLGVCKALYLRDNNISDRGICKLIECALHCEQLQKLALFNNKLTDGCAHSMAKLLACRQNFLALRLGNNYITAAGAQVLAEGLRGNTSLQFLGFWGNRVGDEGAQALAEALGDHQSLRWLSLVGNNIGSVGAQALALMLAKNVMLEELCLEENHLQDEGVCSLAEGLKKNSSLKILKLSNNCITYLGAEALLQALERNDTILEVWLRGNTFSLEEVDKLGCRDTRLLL

HEK293 [10] = assay: cells; assay type: functional, cell-based; conditions: Homo sapiens; remark: listed apart in the source
[11] = inhibitors of SNCA 5'UTR-driven translation, confirmation, luminescence, H4 neuroglioblastoma cells, dose confirmation (AID 2454); assay type: functional, cell-based;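 also: H4 neuroglioblastoma cells carrying an alpha-synuclein 5'UTR luciferase reporter; potency for inhibition of the luciferase signal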
[12] = cytotoxicity toward NIH3T3 fibroblasts, dose response, counter-screen, cell-based, ATP luminescence, mouse fibroblasts (AID 2010); assay type: functional;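 also: cells exposed to compound for about 90 hours before reading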
[13] = target: T2, Mannose-6-phosphate isomerase (Homo sapiens, UniProt P34949); assay: human PMI inhibitors, high substrate, primary screen, biochemical, fluorescence intensity, high mannose 6-phosphate (AID 1220)
T2 sequence (P34949 whole entry): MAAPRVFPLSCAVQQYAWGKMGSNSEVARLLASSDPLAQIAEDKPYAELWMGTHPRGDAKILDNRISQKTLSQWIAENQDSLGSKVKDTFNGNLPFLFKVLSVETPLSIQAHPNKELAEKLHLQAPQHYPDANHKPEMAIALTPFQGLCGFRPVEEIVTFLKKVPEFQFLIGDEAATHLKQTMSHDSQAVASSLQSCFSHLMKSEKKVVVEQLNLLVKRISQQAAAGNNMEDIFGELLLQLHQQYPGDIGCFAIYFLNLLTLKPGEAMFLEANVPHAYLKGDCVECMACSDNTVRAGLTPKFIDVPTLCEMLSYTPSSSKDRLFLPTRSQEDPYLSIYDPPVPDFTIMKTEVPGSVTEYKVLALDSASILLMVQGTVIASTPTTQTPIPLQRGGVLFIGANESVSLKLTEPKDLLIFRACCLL

[14] = luciferase reporter signal reduction – luminescence, H4-C neuroglioblastoma cells, dose response (AID 2458); assay type: functional, cell-based;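 also: H4 neuroglioblastoma cells stably carrying a luciferase reporter gene fusion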
Streptococcus = assay: Group A Streptococcus viability loss, dose response, counter-screen for streptokinase expression inhibitor project, luminescence, BacTiterGlo (AID 1915); assay type: functional, organism-based;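 also: potency for reduction of bacterial viability or growth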
HEK293 [15] = assay: cells; assay type: functional, cell-based; conditions: Homo sapiens; remark: listed apart in the source
HEK293 [16] = assay: NOD1 signaling inhibitors, primary screen, cell-based, luminescence, uHTS (AID 1578); assay type: functional; conditions: Homo sapiens
[17] = system: Streptococcus sp. 'group A'; assay: growth inhibition of control SK(-) GAS strain, dose response, counter-screen for streptokinase expression inhibitor project, luminescence, kanamycin, BacTiterGlo, confirmation (AID 1900); assay type: functional, organism-based
[18] = target: T2, Mannose-6-phosphate isomerase; assay: inhibitors of human PMI, primary screen, biochemical, fluorescence intensity, coupled assay (AID 1209)
[19] = target: G2/mitotic-specific cyclin-B1 (Homo sapiens, UniProt P14635); assay: Counterscreen assay for inhibitors of Wee1 degradation: dose response cell-based assay to identify inhibitors of cyclin B degradation. [Related pubchem assays: 1410, 1321 ]; assay type: functional
Sequence of G2/mitotic-specific cyclin-B1 (P14635 whole entry): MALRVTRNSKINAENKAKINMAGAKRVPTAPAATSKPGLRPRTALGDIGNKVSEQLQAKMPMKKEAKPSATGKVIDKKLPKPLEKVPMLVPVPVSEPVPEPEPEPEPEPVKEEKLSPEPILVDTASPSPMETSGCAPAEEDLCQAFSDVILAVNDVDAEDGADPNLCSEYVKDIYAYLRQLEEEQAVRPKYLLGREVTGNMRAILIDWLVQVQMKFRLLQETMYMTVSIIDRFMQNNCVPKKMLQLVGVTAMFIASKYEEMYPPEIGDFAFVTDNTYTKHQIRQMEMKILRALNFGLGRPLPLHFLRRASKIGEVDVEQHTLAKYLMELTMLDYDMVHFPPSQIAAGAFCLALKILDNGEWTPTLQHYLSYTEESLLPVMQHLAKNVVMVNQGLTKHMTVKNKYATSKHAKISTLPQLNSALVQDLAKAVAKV

Wee1-like protein kinase = Wee1-like protein kinase (Homo sapiens, UniProt P30291); assay: Dose Response Cell-based Assay for Inhibitors of Wee1 Degradation. [Related pubchem assays: 1410, 1321 ]; assay type: functional
Sequence of Wee1-like protein kinase (P30291 whole entry): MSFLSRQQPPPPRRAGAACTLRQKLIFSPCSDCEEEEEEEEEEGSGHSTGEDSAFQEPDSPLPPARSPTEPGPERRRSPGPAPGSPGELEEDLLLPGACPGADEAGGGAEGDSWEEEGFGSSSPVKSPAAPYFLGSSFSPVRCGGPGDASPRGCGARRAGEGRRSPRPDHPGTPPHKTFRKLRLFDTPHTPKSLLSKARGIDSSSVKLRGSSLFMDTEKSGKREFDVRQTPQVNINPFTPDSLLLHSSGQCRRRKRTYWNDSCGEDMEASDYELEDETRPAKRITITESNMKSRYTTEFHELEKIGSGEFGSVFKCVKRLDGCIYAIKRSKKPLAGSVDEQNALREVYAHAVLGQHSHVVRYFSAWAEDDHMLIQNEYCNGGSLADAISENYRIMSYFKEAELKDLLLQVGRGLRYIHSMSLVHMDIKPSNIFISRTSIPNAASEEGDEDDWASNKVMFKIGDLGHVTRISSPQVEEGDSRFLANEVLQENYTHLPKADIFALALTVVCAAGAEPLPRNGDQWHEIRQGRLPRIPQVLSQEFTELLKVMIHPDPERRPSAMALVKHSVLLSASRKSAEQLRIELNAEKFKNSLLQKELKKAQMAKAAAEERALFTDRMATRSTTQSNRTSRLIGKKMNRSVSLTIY

NADPH oxidase 1 = NADPH oxidase 1 (Homo sapiens, UniProt Q9Y5S8); assay type: functional, cell-based;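 also: Cell-based assay with luminescence read-out, IC50 derived from inhibitor dose-response curves; intracellular ROS from endogenous NOX1 in intact HT29 colon cancer cells; potency of inhibitors that lower the ROS luminescence signal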
Sequence of NADPH oxidase 1 (Q9Y5S8 whole entry): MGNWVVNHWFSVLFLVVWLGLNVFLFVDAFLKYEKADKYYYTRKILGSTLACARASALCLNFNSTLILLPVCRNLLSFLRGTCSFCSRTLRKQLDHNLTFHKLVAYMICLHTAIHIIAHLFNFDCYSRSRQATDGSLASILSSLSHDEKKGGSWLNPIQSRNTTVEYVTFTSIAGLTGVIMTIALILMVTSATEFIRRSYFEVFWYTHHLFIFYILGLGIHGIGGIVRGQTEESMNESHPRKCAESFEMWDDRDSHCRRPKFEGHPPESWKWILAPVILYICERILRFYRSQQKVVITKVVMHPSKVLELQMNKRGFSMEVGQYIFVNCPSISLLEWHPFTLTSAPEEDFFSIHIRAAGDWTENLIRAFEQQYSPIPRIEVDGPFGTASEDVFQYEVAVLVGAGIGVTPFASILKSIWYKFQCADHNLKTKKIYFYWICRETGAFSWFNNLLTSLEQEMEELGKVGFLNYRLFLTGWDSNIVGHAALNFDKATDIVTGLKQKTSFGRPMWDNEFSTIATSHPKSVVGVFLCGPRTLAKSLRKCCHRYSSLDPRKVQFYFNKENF

Cytochrome P450 2C19 [20] = target: T3, Cytochrome P450 2C19 (Homo sapiens, UniProt P33261); assay: qHTS Assay for Inhibitors and Substrates of Cytochrome P450 2C19. [Related pubchem assays: 410 ]; assay type: ADME; conditions: read-out: Potency
T3 sequence (P33261 whole entry): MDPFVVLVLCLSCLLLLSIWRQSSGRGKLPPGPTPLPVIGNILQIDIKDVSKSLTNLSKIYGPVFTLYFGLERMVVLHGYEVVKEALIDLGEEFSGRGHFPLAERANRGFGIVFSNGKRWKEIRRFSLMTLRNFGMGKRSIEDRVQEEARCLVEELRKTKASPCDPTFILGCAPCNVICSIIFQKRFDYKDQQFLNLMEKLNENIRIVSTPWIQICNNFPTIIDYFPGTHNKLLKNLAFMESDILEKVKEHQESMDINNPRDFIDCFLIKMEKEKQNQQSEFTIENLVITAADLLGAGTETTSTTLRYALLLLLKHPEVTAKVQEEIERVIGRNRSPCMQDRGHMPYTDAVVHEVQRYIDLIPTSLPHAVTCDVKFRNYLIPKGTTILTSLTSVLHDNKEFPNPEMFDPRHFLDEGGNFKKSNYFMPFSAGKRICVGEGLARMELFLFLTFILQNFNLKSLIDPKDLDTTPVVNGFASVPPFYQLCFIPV

Cytochrome P450 2C19 [21] = target: T3, Cytochrome P450 2C19; assay: Cytochrome panel assay with activity outcomes. Panel member name: p450-cyp2c19 Compounds with AC50 equal or less than 10 uM are considered active; assay type: functional; conditions: read-out: AC50
Cytochrome P450 2D6 = Cytochrome P450 2D6 (Homo sapiens, UniProt P10635);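 also: CYP2D6 member of a cytochrome P450 panel assay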
Sequence of Cytochrome P450 2D6 (P10635 whole entry): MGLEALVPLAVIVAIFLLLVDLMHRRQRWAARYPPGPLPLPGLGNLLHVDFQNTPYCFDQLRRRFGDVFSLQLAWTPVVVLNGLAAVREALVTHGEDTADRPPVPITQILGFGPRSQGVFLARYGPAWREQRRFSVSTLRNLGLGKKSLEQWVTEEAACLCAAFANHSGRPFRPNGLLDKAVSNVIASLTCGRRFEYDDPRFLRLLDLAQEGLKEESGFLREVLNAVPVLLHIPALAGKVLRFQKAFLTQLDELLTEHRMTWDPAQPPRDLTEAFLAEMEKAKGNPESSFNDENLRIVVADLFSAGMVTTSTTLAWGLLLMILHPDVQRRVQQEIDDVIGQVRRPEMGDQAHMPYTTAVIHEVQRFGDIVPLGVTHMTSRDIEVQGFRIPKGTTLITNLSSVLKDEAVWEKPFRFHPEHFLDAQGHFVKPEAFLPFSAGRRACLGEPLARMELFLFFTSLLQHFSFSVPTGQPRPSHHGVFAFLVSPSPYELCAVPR

SMILES: O=c1oc(-c2cccs2)nc2c1cnn2-c1ccccc1
- IC50 (cells [1]): 4.92 µM (active)
- IC50 [2]: > 100 µM (active)

SMILES: CCCc1cc(-n2ccnc2)n2c(nc3ccccc32)c1C#N
- IC50 (Estrogen receptor): 29.8 µM (active)

SMILES: Oc1c(CN2CCN(c3ccccn3)CC2)cc(Cl)c2cccnc12
- IC50 (HEK293 [3]): 4.88 µM (inactive)
- EC50 [4]: 0.942 µM (active)
- AC50 (INS1): 1.99 µM (active)
- IC50 (HEK293 [5]): > 20 µM (inactive)
- EC50 (cells [6]): > 12 µM (inconclusive)
- EC50 [7]: 2.52 µM (active)
- EC50 [8]: < 0.1 µM (active)
- EC50 [9]: 8.07 µM (active)
- IC50 (HEK293 [10]): > 20 µM (inactive)
- EC50 [11]: > 12 µM (not active)
- EC50 [12]: 7.32 µM (active)
- IC50 [13]: > 50 µM (not active)
- EC50 [14]: 10.7 µM (active)
- EC50 (Streptococcus): 5.45 µM (active)
- IC50 (HEK293 [15]): 6.23 µM (active)
- EC50 (HEK293 [16]): 4.58 µM (active)
- EC50 [17]: 3.06 µM (active)
- IC50 [18]: > 50 µM (not active)

SMILES: COc1cccc(/C=N/NC(=O)c2cc3c(OC)c(OC)ccc3[nH]2)c1OC
- EC50 [19]: > 49.7 µM (not active)
- EC50 (Wee1-like protein kinase): > 49.7 µM (not active)

SMILES: Cc1ccc(-c2nc(-c3ccccc3)c(-c3ccccc3)[nH]2)cc1
- IC50 (NADPH oxidase 1): > 17 µM (not active)

SMILES: O=[N+]([O-])c1cccc2c(Br)n[nH]c12
- AC50 (Cytochrome P450 2C19 [20]): 0.001 µM (inconclusive)
- AC50 (Cytochrome P450 2C19 [21]): 0.251 µM (inconclusive)
- AC50 (Cytochrome P450 2D6): 0.251 µM (inconclusive)
